In patent US20090099094A1, “Use of Somatostatin Agonists to Treat Medullary Thyroid Carcinoma” (priority 2007, published 2009):
pKi: −log10 of the molar value.

Columns and labels:
SSTR1 = SSTR1 (Homo sapiens, UniProt P30872); test: SSTR receptor binding affinity (Ki), SSTR1; settings: read-out: SSTR Specificity Ki SSTR1
SSTR4 = SSTR4 (Homo sapiens, UniProt P31391); test: SSTR receptor binding affinity (Ki), SSTR4; settings: read-out: SSTR Specificity Ki SSTR4
[1] = tested on: medullary thyroid carcinoma primary cultures; test: Cell viability of MTC primary cultures (MTT); assay type: cell-based, human; settings: 10^−8 M, forty-eight hours; for cell viability, change vs. control (signed, negative = reduced): group B (lanreotide non-responsive) mean
Protocol: Primary cultured cells from 18 selected MTC samples were incubated in ninety six well plates for forty eight hours with each SSTR agonist at 10^−8 M. Control cells were treated with vehicle solution. Cell viability was measured by a colorimetric method among eight replicates from treated and untreated (control) primary cultured cells. […] Data are expressed as the mean±SE percent cell viability reduction vs. untreated control cells. *P<0.05, and **P<0.01 vs. control.
(§1) Tissue samples were surgically removed in accordance with the guidelines of the local comnmittees on human research. Thyroid tissue samples were obtained under sterile conditions and immediately minced in RPMI 1640 tissue culture medium. Tissues were incubated with 0.25% trypsin overnight at 4° C. and then dissociated using 0.35% collagenase (Sigma, Milano, ITALY) and 1% trypsin at 37° C. for sixty minutes. Cell suspensions were filtered through double layers of gaus(e and washed twice with serum-free F-12 Ham's Nutrient Modified Medium (F-12; Euroclone Ltd, Wetherby, UNITED KINGDOM). Tumor cells were re-suspended in F-12 with 10% fetal bovine serum and antibiotics, seeded in ninety-six well culture plates (˜2×10^4 cells/well) and incubated at 37° C. in a humidified atmosphere of 5% CO2 and 95% air according to known procedures (Zatelli, M. C. et al., Endocrinology, 2005, 146:2692-8). Approximately twenty-four hours later, the prepared cells were treated with the selected somatostatin agonist and were monitored for hormone secretion and overall viability. Informed consent of the patients was obtained for disclosing clinical investigation and performing the in vitro study.
The effects of the tested somatostatin analogs on medullary thyroid carcinoma primary culture cell viability were assessed with a Cell Proliferation Kit I MTT® (Roche Diagnostics GmbH, Mannheim, GERMANY) which employs a colorimetric method for determining the number of viable cells in proliferation assays. Primary cultured cells were plated in ninety-six multiwell plates (2×10^4 cells/well) and incubated for forty-eight hours in a medium supplemented with 10% fetal bovine serum in the presence or absence of each somatostatin analog at 10^−8M. Treatments were renewed after the first twenty-four hours of incubation.
In order to investigate the effects of somatostatin analogs on medullary thyroid carcinoma cell viability, an MTT assay was performed in primary cultures derived from the eighteen selected medullary thyroid carcinoma samples, treated with or without each somatostatin analog at […] for forty-eight hours. Percent cell viability reduction compared to a control in each primary culture under treatment with each somatostatin analog is reported in Table 6.

SSTR3 = SSTR3 (Homo sapiens, UniProt P32745); test: SSTR receptor binding affinity (Ki), SSTR3; settings: read-out: SSTR Specificity Ki SSTR3
SSTR3, sequence (P32745 whole entry): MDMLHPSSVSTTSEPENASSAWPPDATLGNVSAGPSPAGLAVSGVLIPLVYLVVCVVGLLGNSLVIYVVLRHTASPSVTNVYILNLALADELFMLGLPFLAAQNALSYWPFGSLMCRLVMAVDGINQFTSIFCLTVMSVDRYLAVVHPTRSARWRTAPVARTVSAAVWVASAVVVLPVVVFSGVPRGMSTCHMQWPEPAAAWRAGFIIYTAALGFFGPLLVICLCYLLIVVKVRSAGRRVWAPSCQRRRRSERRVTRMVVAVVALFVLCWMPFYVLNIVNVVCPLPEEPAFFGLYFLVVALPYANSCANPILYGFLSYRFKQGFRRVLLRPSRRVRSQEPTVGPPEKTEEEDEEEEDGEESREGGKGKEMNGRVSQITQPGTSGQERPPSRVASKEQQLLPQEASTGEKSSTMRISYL

[2] = tested on: medullary thyroid carcinoma primary cultures; test: Calcitonin secretion by MTC primary cultures (IRMA); assay type: cell-based, human; settings: 10^−8 M, six hours
Protocol: Primary cultured cells from 18 selected MTC samples were incubated in ninety six well plates for six hours with each SSTR agonist at 10^−8 M. Control cells were treated with vehicle solution. Calcitonin levels in the conditioned medium were measured by immunoradiometric assay (IRMA) among eight replicates in the conditioned medium from treated and untreated (control) primary cultured cells. […] Data are expressed as the mean±SE percent hormone secretion inhibition vs. untreated control cells. *P<0.05 and **P<0.01 vs. control.
as §1
Calcitonin levels were measured in a conditioned medium from treated and untreated primary cultured cells with the calcitonin-U.S.-IRMA® kit (Biosource Europe, Nivelles, BELGIUM) after a six hour treatment with […] of the selected somatostatin analogs. The intra- and inter-assay variation coefficients were 1.9-2.7% and 1.9-3.3%, respectively. The detection limit was 0.8 pg/ml. Hormone assays were performed in duplicate of conditioned medium from treated cells. Results were obtained by determining the mean value among eight replicates.
In order to investigate the effects of somatostatin analogs on hormone secretion, calcitonin and CgA levels were measured in conditioned media collected from primary cultures derived from the selected eighteen medullary thyroid carcinoma treated with or without each somatostatin analog at 10^−8M for six hours.
According to this criterion, […] as “responders” (group A: primary cultures #3, #5, #6, #7, #11, #12, #13, #14, #15, #16) and nine as “non responders” (group B: primary cultures #1, #2, #4, #8, #9, #10, #17, #18).

SSTR2 = SSTR2 (Homo sapiens, UniProt P30874); test: SSTR receptor binding affinity (Ki), SSTR2; settings: read-out: SSTR Specificity Ki SSTR2
SSTR2, sequence (P30874 whole entry): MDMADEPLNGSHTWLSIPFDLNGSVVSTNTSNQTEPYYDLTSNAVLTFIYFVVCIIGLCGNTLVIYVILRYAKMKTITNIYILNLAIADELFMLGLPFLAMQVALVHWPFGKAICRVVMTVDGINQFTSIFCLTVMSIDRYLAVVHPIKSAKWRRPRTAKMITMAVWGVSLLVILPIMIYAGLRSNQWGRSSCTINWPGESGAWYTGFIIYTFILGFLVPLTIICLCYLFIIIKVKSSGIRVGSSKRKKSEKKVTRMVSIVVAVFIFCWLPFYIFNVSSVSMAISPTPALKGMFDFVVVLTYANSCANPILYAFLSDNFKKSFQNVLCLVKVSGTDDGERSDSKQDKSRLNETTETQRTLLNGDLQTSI

MTC = settings: cited from earlier work; for suppressing calcitonin secretion: MTC, commercially available somatostatin analogs; for reducing tumour size and/or increasing patient survival rate: treatment of MTC patients
[3] = MTC primary culture #1 (non responder)
[4] = MTC primary culture #2 (non responder)
[5] = MTC primary culture #3 (responder)
[6] = MTC primary culture #4 (non responder)
[7] = MTC primary culture #5 (responder)
[8] = MTC primary culture #6 (responder)
[9] = MTC primary culture #7 (responder)
[10] = MTC primary culture #8 (non responder)
[11] = MTC primary culture #9 (non responder)
[12] = MTC primary culture #10 (non responder)
[13] = MTC primary culture #11 (responder)
[14] = MTC primary culture #12 (responder)
[15] = MTC primary culture #13 (responder)
[16] = MTC primary culture #14 (responder)
[17] = MTC primary culture #15 (responder)
[18] = MTC primary culture #16 (responder)
[19] = MTC primary culture #17 (non responder)
[20] = MTC primary culture #18 (non responder)
[21] = group A (lanreotide responsive) mean

SSTR1, sequence (P30872 whole entry): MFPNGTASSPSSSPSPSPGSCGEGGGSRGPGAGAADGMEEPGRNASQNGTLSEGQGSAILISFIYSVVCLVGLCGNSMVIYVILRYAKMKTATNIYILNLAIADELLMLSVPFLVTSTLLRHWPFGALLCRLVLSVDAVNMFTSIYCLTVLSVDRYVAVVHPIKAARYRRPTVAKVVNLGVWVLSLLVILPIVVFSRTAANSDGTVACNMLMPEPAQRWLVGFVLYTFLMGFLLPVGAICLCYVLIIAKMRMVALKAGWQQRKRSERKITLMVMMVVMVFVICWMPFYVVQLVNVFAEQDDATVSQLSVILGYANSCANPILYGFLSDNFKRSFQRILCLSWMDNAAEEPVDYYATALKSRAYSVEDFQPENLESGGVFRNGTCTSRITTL
SSTR4, sequence (P31391 whole entry): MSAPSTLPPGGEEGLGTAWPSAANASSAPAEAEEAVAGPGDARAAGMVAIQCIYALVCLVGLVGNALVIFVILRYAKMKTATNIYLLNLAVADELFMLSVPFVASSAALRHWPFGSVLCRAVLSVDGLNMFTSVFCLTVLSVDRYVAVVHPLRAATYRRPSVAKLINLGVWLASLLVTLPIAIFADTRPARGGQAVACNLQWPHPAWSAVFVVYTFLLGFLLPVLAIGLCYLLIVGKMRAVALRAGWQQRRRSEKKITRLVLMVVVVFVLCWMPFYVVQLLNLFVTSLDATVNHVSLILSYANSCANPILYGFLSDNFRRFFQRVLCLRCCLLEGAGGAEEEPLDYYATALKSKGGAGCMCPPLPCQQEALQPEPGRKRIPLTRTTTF

CC[C@@H]1NC(=O)[C@H](CCCCN)NC(=O)[C@@H](Cc2c[nH]c3ccccc23)NC(=O)[C@H](Cc2ccc(O)cc2)NC(=O)[C@@H](NC(=O)[C@@H](Cc2ccccc2)NC(=O)CN2CCN(CCO)CC2)CSSC[C@@H](C(=O)N[C@H](C(N)=O)[C@@H](C)O)NC1=O [4-(2-Hydroxyethyl)-1-piperazinylacetyl-D-Phe-c[Cys-Tyr-D-Trp-Lys-Abu-Cys]-Thr-NH2]
pKi (SSTR1): 5.35
pKi (SSTR4): 5.20

CC(C)[C@@H]1NC(=O)[C@H](CCCCN)NC(=O)[C@@H](Cc2c[nH]c3ccccc23)NC(=O)[C@H](Cc2ccc(O)c(I)c2)NC(=O)[C@@H](NC(=O)[C@H](N)Cc2ccccc2)CSSC[C@@H](C(=O)N[C@H](C(N)=O)[C@@H](C)O)NC1=O [Cmpd #4, D-Phe-[Cys-Tyr(I)-D-Trp-Lys-Val-Cys]-Thr-NH2]
% cell viability reduction vs. control [1, 3]: −14.7%
% cell viability reduction vs. control [1, 4]: −38.3%
% cell viability reduction vs. control [1, 5]: 13.3%
% cell viability reduction vs. control [1, 6]: −11.3%
% cell viability reduction vs. control [1, 7]: 24.7%
% cell viability reduction vs. control [1, 8]: −10.8%
% cell viability reduction vs. control [1, 9]: 5.7%
% cell viability reduction vs. control [1, 10]: −20.6%
% cell viability reduction vs. control [1, 11]: −32.1%
% cell viability reduction vs. control [1, 12]: 6.5%
% cell viability reduction vs. control [1, 13]: 1.4%
% cell viability reduction vs. control [1, 14]: 7.4%
% cell viability reduction vs. control [1, 15]: 9.3%
% cell viability reduction vs. control [1, 16]: 1.3%
% cell viability reduction vs. control [1, 17]: 12.6%
% cell viability reduction vs. control [1, 18]: 15.0%
% cell viability reduction vs. control [1, 19]: −2.6%
% cell viability reduction vs. control [1, 20]: −7.7%
cell viability, change vs. control (signed, negative = reduced) [1]: −13%
pKi (SSTR3): 6.88
pKi (SSTR1): 5.99
pKi (SSTR4): < 6.00
% CT secretion inhibition vs. control [2, 3]: −10.5%
% CT secretion inhibition vs. control [2, 4]: 5.2%
% CT secretion inhibition vs. control [2, 5]: −33.9%
% CT secretion inhibition vs. control [2, 6]: −10.3%
% CT secretion inhibition vs. control [2, 7]: −15.7%
% CT secretion inhibition vs. control [2, 8]: −12.6%
% CT secretion inhibition vs. control [2, 9]: −42.6%
% CT secretion inhibition vs. control [2, 10]: 3.6%
% CT secretion inhibition vs. control [2, 11]: −5.2%
% CT secretion inhibition vs. control [2, 12]: 12.8%
% CT secretion inhibition vs. control [2, 13]: −15.7%
% CT secretion inhibition vs. control [2, 14]: −18.5%
% CT secretion inhibition vs. control [2, 15]: −42.8%
% CT secretion inhibition vs. control [2, 16]: 8.4%
% CT secretion inhibition vs. control [2, 17]: −30.6%
% CT secretion inhibition vs. control [2, 18]: −16.2%
% CT secretion inhibition vs. control [2, 19]: 12.7%
% CT secretion inhibition vs. control [2, 20]: 5.3%
calcitonin secretion, change vs. control (signed, negative = reduced) [2, 21]: −25%
calcitonin secretion, change vs. control (signed, negative = reduced) ([2]; group B (lanreotide non-responsive) mean): not reduced
pKi (SSTR2): 9.54

CC(C)[C@@H]1NC(=O)[C@H](CCCCN)NC(=O)[C@@H](Cc2c[nH]c3ccccc23)NC(=O)[C@H](Cc2ccc(O)cc2)NC(=O)[C@@H](NC(=O)[C@H](N)Cc2ccc3ccccc3c2)CSSC[C@@H](C(=O)N[C@H](C(N)=O)[C@@H](C)O)NC1=O [lanreotide, D-β-Nal-c[Cys-Tyr-D-Trp-Lys-Val-Cys]-Thr-NH2, reference compound]
% cell viability reduction vs. control [1, 3]: −6.1%
% cell viability reduction vs. control [1, 4]: −57.0%
% cell viability reduction vs. control [1, 5]: 1.5%
% cell viability reduction vs. control [1, 6]: −25.8%
% cell viability reduction vs. control [1, 7]: 13.4%
% cell viability reduction vs. control [1, 8]: 9.7%
% cell viability reduction vs. control [1, 9]: 54.4%
% cell viability reduction vs. control [1, 10]: −7.9%
% cell viability reduction vs. control [1, 11]: −8.6%
% cell viability reduction vs. control [1, 12]: 7.0%
% cell viability reduction vs. control [1, 13]: −11.2%
% cell viability reduction vs. control [1, 14]: 3.5%
% cell viability reduction vs. control [1, 15]: 23.1%
% cell viability reduction vs. control [1, 16]: 1.8%
% cell viability reduction vs. control [1, 17]: −8.3%
% cell viability reduction vs. control [1, 18]: −15.8%
% cell viability reduction vs. control [1, 19]: −9.7%
% cell viability reduction vs. control [1, 20]: −15.8%
cell viability, change vs. control (signed, negative = reduced) [1]: −14%
pKi (SSTR3): 7.01
suppressing calcitonin secretion (MTC): lack of efficacy
reducing tumour size and/or increasing patient survival rate (MTC): little effect
pKi (SSTR1): 5.67
% CT secretion inhibition vs. control [2, 3]: −5.2%
% CT secretion inhibition vs. control [2, 4]: 21.7%
% CT secretion inhibition vs. control [2, 5]: −22.6%
% CT secretion inhibition vs. control [2, 6]: 34.7%
% CT secretion inhibition vs. control [2, 7]: −19.0%
% CT secretion inhibition vs. control [2, 8]: −18.0%
% CT secretion inhibition vs. control [2, 9]: −44.6%
% CT secretion inhibition vs. control [2, 10]: 14.7%
% CT secretion inhibition vs. control [2, 11]: 9.8%
% CT secretion inhibition vs. control [2, 12]: 22.9%
% CT secretion inhibition vs. control [2, 13]: −25.1%
% CT secretion inhibition vs. control [2, 14]: −20.6%
% CT secretion inhibition vs. control [2, 15]: −42.5%
% CT secretion inhibition vs. control [2, 16]: −19.8%
% CT secretion inhibition vs. control [2, 17]: −20.9%
% CT secretion inhibition vs. control [2, 18]: −34.3%
% CT secretion inhibition vs. control [2, 19]: 8.5%
% CT secretion inhibition vs. control [2, 20]: −10.8%
calcitonin secretion reduced / inhibited by ([2]; group A (lanreotide responders) mean): 27%
calcitonin secretion, change vs. control (signed, negative = reduced) [2, 21]: −27%

C[C@@H](O)[C@@H]1NC(=O)[C@H](CCCCN)NC(=O)[C@@H](Cc2c[nH]c3ccccc23)NC(=O)[C@H](Cc2ccccc2)NC(=O)[C@@H](NC(=O)[C@H](N)Cc2ccccc2)CSSC[C@@H](C(=O)N[C@H](CO)[C@@H](C)O)NC1=O [octreotide]
suppressing calcitonin secretion (MTC): lack of efficacy
reducing tumour size and/or increasing patient survival rate (MTC): little effect
